Legend:
Assay type in all cases: physicochemical
[1] = Deblocking test of 3′ blocked T nucleotides in solution (Pd/THP for AOM, THP for azidomethyl; HPLC); conditions: 0.1 mM nucleotide, Pd/THP=1/5, 1 mM THP, ethanolamine pH 9.8, room temperature
Experimental: In this example, deblocking tests for 5′-mP 3′-AOM T and the standard 5′-mP 3′-O-azidomethyl T nucleotide were performed individually in a solution unique to each blocking group. Conditions were formulated to mimic Illumina's standard deblock reagent as closely as possible, and follow the same methodology. Concentrations of active deblock reagent, buffer, and nucleoside are kept the same across all tests, but the identity of each component was unique. In this way, the observed difference in rate between the individual deblocking chemistries cannot due to the differences in concentration of formulation.
Nucleotide: 5′-monophosphate 3′-O-azidomethyl T. Active Deblock reagent: tris(hydroxypropyl)phosphine (THP) (1M in 18 mΩ water). (Optional) Additive: Sodium ascorbate (0.1 mM in 18 mΩ water) final conc.=1 mM. Buffer: Ethanolamine pH 9.8 (2M in 18 mΩ water). Quenching reagent: H2O2.
Nucleotide: 5′-monophosphate […]. A stock solution of 3′-AOM T was diluted to 0.1 mM in a 100 mM ethanolamine buffer (pH 9.8), in a glass vial under nitrogen. A stock solution of sodium ascorbate additive was added to a final concentration of 0.1 mM and the solution stirred 5 minutes. To commence the assay, the deblock reagents (Pd/THP=⅕; sodium ascorbate; ethanolamine) were added, to a final concentration of 1 mM THP, to the stirring solution at room temperature. […]

[2] = 3′-O-thiocarbamate blocking groups stability testing in incorporation buffer at 65° C. (HPLC); conditions: 9-day testing period (FIG. 6)
Experimental: The stability tests for 5′-mP 3′-DMTC T nucleotide was performed side by side in an incorporation buffer solution with standard 5′-mP 3′-O-azidomethyl T nucleotide.
For both 5′-mP 3′-DMTC T and 5′-mP 3′-O-azidomethyl T, the final solution volume was 1 mL and the final concentrations of the corresponding nucleotides were both 0.1 mM. Other components of the aqueous buffer solution include ethanolamine (EA), ethanolamine HCl, NaCl (100 mM), and EDTA (2.5 mM). The buffer solution has the following concentration: 0.5 M EA Buffer, 0.5 M NaCl, 0.01 M EDTA.
200 μL of 10× Buffer solution was added to a 1.7 mL polypropylene snap lock microtube and diluted with the correct volume of 18 mΩ water. The corresponding nucleoside was then added, the vial was sealed and mixed via inversion, gentle stirring or pumping with a micropipette. A 40 μL aliquot was taken and analyzed by HPLC to act as a starting (or t=0) value. The vials are then placed in a pre-heated heating mantle set to 65° C., covered with a thick layer of aluminum foil and left to heat for one month. 40 μL aliquots was taken periodically (weck 1: once daily. Wecks 2-4: 1 every 2 days) and analyzed by HPLC to determine the percentage starting material and the percentage deblocked (3′-OH) nucleotide in the samples. HPLC analysis was performed by measuring the area of the stating nucleotide peak and the 3′OH peak. […]

[3] = 3′-O-thiocarbamate (DMTC) deblocking test in solution (HPLC)
Experimental: In this example, deblocking or deblock tests for 5′-mP 3′-DMTC T and the standard 5′-mP 3′-O-azidomethyl T nucleotide were performed individually in a solution unique to each blocking group. Conditions were formulated to mimic Illumina's standard deblock reagent as closely as possible, and follow the same methodology. Concentrations of active deblock reagent, buffer, and nucleoside are kept the same across all tests, but the identity of each component was unique. In this way, the observed difference in rate between the individual deblocking chemistries cannot due to the differences in concentration of formulation.
Each reaction component was formulated individually as a concentrated stock in 18 mΩ water, stored appropriately, and aliquots combined in a specific order given below. Reaction was commenced by addition of the preformulated deblock reagent. […]
In a 3 mL glass vial was added the preformulated buffer solution followed by preformulated additive solution. […] A 40 μL aliquot was then taken, quenching reagent added and analyzed by HPLC as a reference (or t=0 min) peak. […] At specified time points, 40 μL aliquots were taken and quenched immediately with an appropriate quenching reagent, then analyzed by HPLC to determine the amount of deblocked nucleotide that has occurred at these specified time points. […]

Row | Compound | speed improvement in deblocking rate in solution compared to standard azidomethyl blocking group [1] [fold] | stability compared to nucleotide with standard 3′-O-azidomethyl group [2] | deblocking with NaIO4 ([3]; 1 mM NaIO4, pH 6.75 phosphate buffer (FIG. 7)) | deblocking rate with Oxone compared to standard azidomethyl blocking group ([3]; 1 mM Oxone, pH 8.65 phosphate buffer (FIG. 7))
1 | C=CCOCOC1C[C@H](n2cc(C)c(=O)[nH]c2=O)O[C@@H]1COP(=O)(O)O (stereo partly shown) [AOM] | 10 |  |  | 
2 | Cc1cn([C@H]2CC(OC(=S)N(C)C)[C@@H](COP(=O)(O)O)O2)c(=O)[nH]c1=O (stereo partly shown) [DMTC] |  | improved stability | not efficient | superior deblocking rate
